Source: the OPERA property sets (Mansouri et al. 2018)

Going from COCc1ccc(C(=O)O)cc1 to CC(=O)OCc1ccc(C)cc1, the logP rises from 1.76 to 2.44.

Compared with CC12CC3CC(C)(C1)CC(N)(C3)C2, C[C@H]1C[C@H]2[C@@H]3CCC4=CC(=O)C=C[C@]4(C)[C@@]3(F)[C@@H](O)C[C@]2(C)[C@@]1(O)C(=O)CCl is lower in logP: 3.28 for the first, 2.48 for the second.

First: NS(=O)(=O)c1cccnc1
Second: NC(=O)Cc1cccnc1
The logP of the first is higher: -0.49 for the first, -0.71 for the second.

First: CI
Second: CC#N
The logP of the first is higher: 1.51 for the first, -0.34 for the second.

Going from OC(Cn1ccnc1)c1ccc(CCc2ccccc2)cc1 (centres undefined) to CC(C(=O)O)c1ccc(-c2ccccc2)c(F)c1 (centres undefined), the logP rises from 3.4 to 4.16.

Going from OCCCCCc1cccnc1 to CCc1cccc(O)c1, the logP rises from 1.41 to 2.4.

First: c1ccc2c(c1)CCc1ccccc1-2
Second: c1cc2c3c(cccc3c1)CC2
The logP of the first is higher: 4.52 for the first, 3.92 for the second.

Going from COCC(=O)N(c1c(C)cccc1C)C(C)C(=O)OC (centres undefined) to CC(=O)c1cccc(C(C)=O)c1, the logP falls from 1.65 to 1.43.

First: [N-]=[N+]=CC(=O)NCC(N)=O
Second: NC(=O)Nc1cccc(OCC(=O)O)c1
The logP of the first is lower: -1.26 for the first, 0.26 for the second.

CCCOc1ccccc1 and FC(F)(F)Oc1ccccc1 are within 0.2 log units of each other in logP: 3.18 for the first, 3.17 for the second.

First: COc1cccc(NC(=O)N(CCCl)N=O)c1
Second: NC(=O)Nc1cccc(F)c1
The logP of the first is higher: 2.66 for the first, 1.29 for the second.

Going from CCC(C)C(=O)Nc1ccccc1 (centres undefined) to CC(C)(C)C(=O)Nc1ccccc1, the logP falls from 2.56 to 1.99.

Compared with CC(O)C(C)O (centres undefined), CC(C)C(C#N)c1ccccc1 (centres undefined) is higher in logP: -0.92 for the first, 2.33 for the second.

Compared with NCCCCCC(=O)O, CCCCCOC(N)=O is higher in logP: -2.95 for the first, 1.35 for the second.

Going from c1ccc(-c2nc3ccccc3[nH]2)cc1 to O=C(c1ccccc1)c1ccccc1O, the logP rises from 3.24 to 3.52.

First: c1ccc2c(c1)COC2
Second: Cc1ccccc1N
The logP of the first is higher: 1.76 for the first, 1.32 for the second.

First: FCC1CO1 (centres undefined)
Second: Fc1cccc(C2CNCCO2)c1 (centres undefined)
The logP of the first is lower: -0.16 for the first, 1.42 for the second.

Nc1nc(N)nc(-c2ccccc2I)n1 and c1ccc2[nH]cnc2c1 are within 0.2 log units of each other in logP: 1.41 for the first, 1.32 for the second.

Compared with CN(C(=O)c1ccccc1)c1ccccc1, O=C1CC(=O)N(c2ccccc2)N1c1ccccc1 is lower in logP: 2.36 for the first, 1.45 for the second.

Going from O=C(CN1CCCCC1)Nc1ccccc1F to O=C(CN1CCCCC1)Nc1ccccc1Br, the logP rises from 2.16 to 2.94.

Going from c1ccc2c(c1)oc1ccccc12 to O=c1cc[nH]c2ccccc12, the logP falls from 4.12 to 0.58.

Going from O=C(O)COc1ccc([N+](=O)[O-])cc1 to CC(=O)OCc1ccc([N+](=O)[O-])cc1, the logP rises from 1.48 to 1.73.

First: Clc1ccc(Cl)c(-c2c(Cl)ccc(Cl)c2Cl)c1
Second: Oc1cc(Cl)cc(Cl)c1
The logP of the first is higher: 6.55 for the first, 3.62 for the second.

Compared with O=[N+]([O-])c1ccccc1Br, O=C(O)c1ccccc1F is lower in logP: 2.52 for the first, 1.77 for the second.

Compared with O=C(NCC(O)CO)c1c(I)c(C(=O)NCC(O)CO)c(I)c(N(CCO)C(=O)CO)c1I (centres undefined), CC(=O)c1ccc(C(O)C(CO)NC(=O)C(Cl)Cl)cc1 (centres undefined) is higher in logP: -2.98 for the first, 0.57 for the second.

Going from CCc1ccccc1CC to CCOc1ccccc1OCC, the logP falls from 3.72 to 2.42.

First: CC(C)c1cc([N+](=O)[O-])cc([N+](=O)[O-])c1O
Second: Cc1cc(NS(=O)(=O)c2ccc(N)cc2)nc(C)n1
The logP of the first is higher: 3.1 for the first, -0.33 for the second.

First: CCN(CC)CCOC(=O)C=Cc1cc(OC)c(OC)c(OC)c1
Second: CN[C@H]1CCc2cc(OC)c(OC)c(OC)c2-c2ccc(OC)c(=O)cc21
The logP of the first is higher: 2.84 for the first, 1.37 for the second.

Compared with O=[N+]([O-])c1ccc(C=Cc2ncccn2)o1, CN(C)S(=O)(=O)c1ccc(N)cc1 is lower in logP: 1.34 for the first, 0.67 for the second.

Going from CCCCCNC(=O)c1ccc(S(N)(=O)=O)cc1 to CCCN(C)/N=N/c1ccc(C(N)=O)cc1, the logP rises from 1.51 to 2.17.

Going from Brc1ccoc1 to NC(=O)c1ccco1, the logP falls from 2.18 to -0.11.

Going from O=C(Cn1c(=O)sc2ccc(Cl)cc21)N1CCN(CCO)CC1 to CC(=O)CNc1ccccc1C(=O)O, the logP rises from 1.04 to 1.85.

First: C=CCC1(C2C=CCC2)C(=O)NC(=O)NC1=O (centres undefined)
Second: CN1C(=O)CC(=O)NC1=O
The logP of the first is higher: 1.51 for the first, -0.85 for the second.

Going from C1CCCC1 to CC12CCC3C(CCC4(O)CC(O)CCC34C=O)C1(O)CCC2C1=CC(=O)OC1 (centres undefined), the logP falls from 3 to 0.64.

Going from O=C1C(Cl)=C(Nc2ccccc2)C(=O)c2ccccc21 to NS(=O)(=O)c1cc2c(cc1Cl)N=CNS2(=O)=O, the logP falls from 4.22 to -0.24.

First: O=C(O)CC(O)C(=O)O (centres undefined)
Second: CC=CC(C)=O
The logP of the first is lower: -1.26 for the first, 0.52 for the second.

Cc1c[nH]cn1 and CN(C)C(N(C)C)=S(I)c1cccc(I)c1 (centres undefined) are within 0.2 log units of each other in logP: 0.23 for the first, 0.29 for the second.
